Test results reported in US7354579B2, “Method of treating cancer with a VEGF antagonist and an anti-proliferative agent” (Regeneron Pharmaceuticals, Inc., priority 2003, dated 2008).

System: OVCAR3 cells
Test: OVCAR3 i.p. tumor model in athymic nude mice: tumor burden and ascites after 4 weeks of treatment
Format: in vivo
Settings: for % Reduction Ascites / % Reduction Tumor Burden: compared to controls; for % Reduction Ascites: ascites volume at end of 4 weeks of treatment; for % Reduction Tumor Burden: treatment for 4 weeks starting 2 weeks after i.p. inoculation, VEGF-Trap s.c. twice weekly, paclitaxel i.p. 3 times weekly; for Ascites formation (in words): end of 4 weeks of treatment; for Mice with tumors in the hilus of the liver / Mice with tumors on the diaphragm: end of experiment
Method: Experimental Design. Two experiments, each with 4 groups of female athymic nude mice (5-7 wks, 20 mice/experiment, total n=40) were inoculated i.p. with OVCAR3 cells. Two weeks after inoculation, 1 group was treated with VEGF-Trap s.c. twice weekly+paclitaxel i.p. 3 times weekly for 4 weeks. The second group was treated with VEGF-Trap alone. The third group was treated with paclitaxel alone. The remaining group was treated with vehicle. At the end of the experiments, the mice were euthanized, the volume of ascites was measured and all visible tumor was excised and weighed.

Molecule | % Reduction Ascites | % Reduction Tumor Burden | % Reduction Tumor Burden (listed as VEGF-Trap) | Ascites formation (in words) (listed as VEGF trap) | Ascites formation (in words) (listed as VEGF-Trap) | Mice with tumors in the hilus of the liver | Mice with tumors on the diaphragm | % Reduction Ascites (listed as Paclitaxel) | % Reduction Tumor Burden (listed as paclitaxel)
VEGF Trap: VEGF-receptor based trap antagonist VEGFR1R2-FcΔC1(a) (SEQ ID NOs: 1-2), capable of high affinity binding of VEGF | 96.5% | 56.7% | 55.7% | no demonstrable ascites | Virtually no ascites developed | 60% | Ninety | – | –
CC(=O)O[C@H]1C(=O)[C@@]2(C)[C@H]([C@H](OC(=O)c3ccccc3)[C@]3(O)C[C@H](OC(=O)[C@H](O)[C@@H](NC(=O)c4ccccc4)c4ccccc4)C(C)=C1C3(C)C)[C@]1(OC(C)=O)CO[C@@H]1C[C@@H]2O [Taxol ™, paclitaxel, reference compound] | 85.4% | 55.9% | – | – | – | 60% | 80% | 85.5% | 54.8%
